Measurements as given in patent publication US8163921B2, “Hepatitis C virus inhibitors” (Bristol-Myers Squibb Company, priority 2008, dated 2012).
Like-named read-outs stand apart in the source and are kept apart here.

Legend:
[1] = system: HCV replicon in HUH-7 cells; experiment: HCV replicon FRET assay; type: cell-based, HCV strain 1b; conditions: Hepatitis C virus
Source text: An HCV replicon whole cell system was established as described by Lohmann V, Korner F, Koch J, Herian U, Theilmann L, Bartenschlager R., Science 285(5424):110-3 (1999). This system enabled us to evaluate the effects of our HCV Protease compounds on HCV RNA replication. Briefly, using the HCV strain 1b sequence described in the Lohmann paper (Assession number:AJ238799), an HCV cDNA was synthesized by Operon Technologies, Inc. (Alameda, Calif.), and the full-length replicon was then assembled in plasmid pGem9zf(+) (Promega, Madison, Wis.) using standard molecular biology techniques. The replicon consists of (i) the HCV 5′ UTR fused to the first 12 amino acids of the capsid protein, (ii) the neomycin phosphotransferase gene (neo), (iii) the IRES from encephalomyocarditis virus (EMCV), and (iv) HCV NS3 to NS5B genes and the HCV 3′ UTR. Plasmid DNAs were linearized with ScaI and RNA transcripts were synthesized in vitro using the T7 MegaScript transcription kit (Ambion, Austin, Tex.) according to manufacturer's directions. In vitro transcripts of the eDNA were transfected into the human hepatoma cell line, HUH-7. […] Resulting cell lines were characterized for positive and negative strand RNA production and protein production over time.
The HCV replicon FRET assay was developed to monitor the inhibitory effects of compounds described in the disclosure on HCV viral replication. HUH-7 cells, constitutively expressing the HCV replicon, were grown in Dulbecco's Modified Eagle Media (DMEM) (Gibco-BRL) containing 10% Fetal calf serum (FCS) (Sigma) and 1 mg/ml G418 (Gibco-BRL). Cells were seeded the night before (1.5×10^4 cells/well) in 96-well tissue-culture sterile plates. Compound and no compound controls were prepared in DMEM containing 4% FCS, 1:100 Penicillin/Streptomysin (Gibco-BRL), 1:100 L-glutamine and 5% DMSO in the dilution plate (0.5% DMSO final concentration in the assay). Compound/DMSO mixes were added to the cells and incubated for 4 days at 37° C. After 4 days, cells were first assessed for cytotoxicity using alamar Blue (Trek Diagnotstic Systems) for a CC50 reading. The toxicity of compound (CC50) was determined by adding 1/10th volume of alamar Blue to the media incubating the cells. After 4 h, the fluorescence signal from each well was read, with an excitation wavelength at 530 nm and an emission wavelength of 580 nm, using the Cytofluor Series 4000 (Perspective Biosystems). Plates were then rinsed thoroughly with Phosphate-Buffered Saline (PBS) (3 times 150 μl).

[2] = target: T1, HCV NS3/4A protease complex, BMS strain (UniProt P27958, C1454S/C1711G, species not given); experiment: FRET peptide assay to monitor HCV NS3/4A proteolytic activity (BMS strain); type: biochemical, HCV genotype 1a; conditions: read-out: IC50 Range, HCV NS3/4A enzyme assay
T1 construct: other: HCV NS3/4A enzyme assay; class symbols; numeric values; fused on or other part: three-lysine solubilising tail at the C-terminus of NS4A; purified on Ni-NTA from the pET21b vector (His tag implied)
Source text: HCV NS3 protease complexes, derived from the BMS strain, H77 strain or J4L6S strain, were generated, as described below. These purified recombinant proteins were generated for use in a homogeneous assay (see below) to provide an indication of how effective compounds of the present disclosure would be in inhibiting HCV NS3 proteolytic activity.
Serum from an HCV-infected patient was obtained from Dr. T. Wright, San Francisco Hospital. An engineered full-length cDNA (compliment deoxyribonucleic acid) template of the HCV genome (BMS strain) was constructed from DNA fragments obtained by reverse transcription-PCR (RT-PCR) of serum RNA (ribonucleic acid) and using primers selected on the basis of homology between other genotype 1a strains. From the determination of the entire genome sequence, a genotype 1a was assigned to the HCV isolate according to the classification of Simmonds et al. (See P Simmonds, K A Rose, S Graham, S W Chan, F McOmish, B C Dow, E A Follett, P L Yap and H Marsden, J. Clin. Microbiol., 31(6), 1493-1503 (1993)). […] The infectious clones, H77 (1a genotype) and J4L6S (1b genotype) were obtained from R. Purcell (NIH) and the sequences are published in Genbank (AAB67036, see Yanagi, M., Purcell, R. H., Emerson, S. U. and Buldi, J. Proc. Natl. Acad. Sci. U.S.A. 94(16),8738-8743 (1997); AF054247, see Yanagi, M., St Claire, M., Shapiro, M., Emerson, S. U., Purcell, R. H. and Bukh, J, Virology 244 (1), 161-172. (1998)).
NS3/4A protease complex-containing fractions were pooled and loaded on a desalting column Superdex-S200 pre-equilibrated with buffer D (25 mM HEPES, pH 7.5, 20% glycerol, 300 mM NaCl, 0.2% TritonX-100, 10 mM βMB). Sample was loaded at a flow rate of 1 mL/min. NS3/4A protease complex-containing fractions were pooled and concentrated to approximately 0.5 mg/ml. The purity of the NS3/4A protease complexes, derived from the BMS, H77 and J4L6S strains, were judged to be greater than 90% by SDS-PAGE and mass spectrometry analyses. The enzyme was stored at −80° C., thawed on ice and diluted prior to use in assay buffer.
The purpose of this in vitro assay was to measure the inhibition of HCV NS3 protease complexes, derived from the BMS strain, H77 strain or J4L6S strain, as described above, by compounds of the present disclosure. This assay provides an indication of how effective compounds of the present disclosure would be in inhibiting HCV NS3 proteolytic activity.
In order to monitor HCV NS3/4A protease activity, an NS3/4A peptide substrate was used. The substrate was RET S1 (Resonance Energy Transfer Depsipeptide Substrate; AnaSpec, Inc. cat #22991)(FRET peptide), described by Taliani et al. in Anal. Biochem. 240(2):60-67 (1996). The sequence of this peptide is loosely based on the NS4A/NS4B natural cleavage site for the HCV NS3 protease except there is an ester linkage rather than an amide bond at the cleavage site. The peptide also contains a fluorescence donor, EDANS, near one end of the peptide and an acceptor, DABCYL, near the other end. The fluorescence of the peptide is quenched by […] resonance energy transfer (RET) between the donor and the acceptor, but as the NS3 protease cleaves the peptide the products are released from RET quenching and the fluorescence of the donor becomes apparent.
The peptide substrate was incubated with one of the three recombinant NS3/4A protease complexes, in the absence or presence of a compound of the present disclosure. The inhibitory effects of a compound were determined by monitoring the formation of fluorescent reaction product in real time using a Cytofluor Series 4000.
Assay buffer: 50 mM HEPES, pH 7.5; 0.15 M NaCl; 0.1% Triton; 15% Glycerol; 10 mM βME. Substrate: 2 μM final concentration (from a 2 mM stock solution in DMSO stored at −20° C.). HCV NS3/4A protease type 1a (1b), 2-3 nM final concentration (from a 5 μM stock solution in 25 mM HEPES, pH 7.5, 20% glycerol, 300 mM NaCl, 0.2% Triton-X100, 10 mM βME). […]

Row | Structure (SMILES) | EC50 ([1]; Huh-7, HCV replicon cell assay, numeric values, read-out: EC50 Range) [nM] | IC50 ([2]; numeric values) [nM] | EC50 ([1]; Huh-7, read-out: EC50 Range) [nM] | IC50 ([2]; class symbols) [nM]
1 | C=C[C@@H]1C[C@]1(NC(=O)[C@@H]1C[C@@H](Oc2ncc(OC)c3ccc(Cl)cc23)CN1C(=O)C(Nc1ccc(-c2ccccc2)c(OC)c1)C(C)(C)C)C(=O)NS(=O)(=O)C1CC1 (single isomer, unassigned) [Example 18A] | 78.1 | 54 | – | –
2 | C=C[C@@H]1C[C@]1(NC(=O)[C@@H]1C[C@@H](Oc2cc(-c3ccccc3)nc3cc(OC)ccc23)CN1C(=O)[C@@H](Nc1nc(-c2ccccc2)cs1)C(C)(C)C)C(=O)NS(=O)(=O)C1CC1 [Example 1] | – | – | 1 to 50 | 1 to 20
3 | C=C[C@@H]1C[C@]1(NC(=O)[C@@H]1C[C@@H](Oc2cc(-c3ccccc3)nc3cc(OC)ccc23)CN1C(=O)[C@@H](Nc1nc(-c2ccccc2OC)cs1)C(C)(C)C)C(=O)NS(=O)(=O)C1CC1 [Example 2] | – | – | 1 to 50 | 1 to 20
4 | C=C[C@@H]1C[C@]1(NC(=O)[C@@H]1C[C@@H](Oc2cc(-c3ccccc3)nc3cc(OC)ccc23)CN1C(=O)[C@@H](Nc1nc(-c2cccc(OC)c2)cs1)C(C)(C)C)C(=O)NS(=O)(=O)C1CC1 [Example 3] | – | – | 1 to 50 | 1 to 20
5 | C=C[C@@H]1C[C@]1(NC(=O)[C@@H]1C[C@@H](Oc2cc(-c3ccccc3)nc3cc(OC)ccc23)CN1C(=O)[C@@H](Nc1nc(-c2ccc(OC)cc2)cs1)C(C)(C)C)C(=O)NS(=O)(=O)C1CC1 [Example 4] | – | – | 1 to 50 | 1 to 20
6 | C=C[C@@H]1C[C@]1(NC(=O)[C@@H]1C[C@@H](Oc2cc(-c3ccccc3)nc3cc(OC)ccc23)CN1C(=O)[C@@H](Nc1nc(-c2ccc(F)cc2)cs1)C(C)(C)C)C(=O)NS(=O)(=O)C1CC1 [Example 5] | – | – | 1 to 50 | 1 to 20
7 | C=C[C@@H]1C[C@]1(NC(=O)[C@@H]1C[C@@H](Oc2ncc(OC)c3ccc(Cl)cc23)CN1C(=O)[C@@H](Nc1nc(-c2ccc(F)c(F)c2)cs1)C(C)(C)C)C(=O)NS(=O)(=O)C1CC1 [Example 6, (2S,4R)-4-(7-chloro-4-methoxyisoquinolin-1-yloxy)-N-((1R,2S)-1-(cyclopropylsulfonylcarbamoyl)-2-vinylcyclopropyl)-1-((S)-2-(4-(3,4-difluorophenyl)thiazol-2-ylamino)-3,3-dimethylbutanoyl)pyrrolidine-2-carboxamide] | – | – | 1 to 50 | 1 to 20
8 | C=C[C@@H]1C[C@]1(NC(=O)[C@@H]1C[C@@H](Oc2ncc(OC)c3ccc(Cl)cc23)CN1C(=O)[C@@H](Nc1nc(-c2ccc(OC)cc2)cs1)C(C)(C)C)C(=O)NS(=O)(=O)C1CC1 [Example 7] | – | – | 1 to 50 | 1 to 20
9 | C=C[C@@H]1C[C@]1(NC(=O)[C@@H]1C[C@@H](Oc2ncc(OC)c3ccc(Cl)cc23)CN1C(=O)[C@@H](Nc1nc(-c2ccc(OC(F)F)cc2)cs1)C(C)(C)C)C(=O)NS(=O)(=O)C1CC1 [Example 8] | – | – | 1 to 50 | 1 to 20
10 | C=C[C@@H]1C[C@]1(NC(=O)[C@@H]1C[C@@H](Oc2ncc(OC)c3ccc(Cl)cc23)CN1C(=O)[C@@H](Nc1nc(-c2ccccc2)c(C)s1)C(C)(C)C)C(=O)NS(=O)(=O)C1CC1 [Example 9, (2S,4R)-4-(7-chloro-4-methoxyisoquinolin-1-yloxy)-N-((1R,2S)-1-(cyclopropylsulfonylcarbamoyl)-2-vinylcyclopropyl)-1-((S)-3,3-dimethyl-2-(5-methyl-4-phenylthiazol-2-ylamino)butanoyl)pyrrolidine-2-carboxamide] | – | – | 1 to 50 | 1 to 20
11 | C=C[C@@H]1C[C@]1(NC(=O)[C@@H]1C[C@@H](Oc2ncc(OC)c3ccc(Cl)cc23)CN1C(=O)[C@@H](Nc1nc(-c2ccc(S(C)(=O)=O)cc2)cs1)C(C)(C)C)C(=O)NS(=O)(=O)C1CC1 [Example 89] | – | – | – | 1 to 20
12 | C=C[C@@H]1C[C@]1(NC(=O)[C@@H]1C[C@@H](Oc2ncc(OC)c3ccc(Cl)cc23)CN1C(=O)[C@@H](Nc1nc(-c2sccc2Cl)cs1)C(C)(C)C)C(=O)NS(=O)(=O)C1CC1 [Example 90] | – | – | – | 1 to 20
13 | C=C[C@@H]1C[C@]1(NC(=O)[C@@H]1C[C@@H](Oc2ncc(OC)c3ccc(Cl)cc23)CN1C(=O)[C@@H](Nc1nc(-c2ccc(Oc3ccccc3)cc2)cs1)C(C)(C)C)C(=O)NS(=O)(=O)C1CC1 [Example 91] | – | – | – | 1 to 20
14 | C=C[C@@H]1C[C@]1(NC(=O)[C@@H]1C[C@@H](Oc2ncc(OC)c3ccc(Cl)cc23)CN1C(=O)[C@@H](Nc1nc(-c2cccc(C(F)(F)F)c2)cs1)C(C)(C)C)C(=O)NS(=O)(=O)C1CC1 [Example 94] | – | – | – | 1 to 20
15 | C=C[C@@H]1C[C@]1(NC(=O)[C@@H]1C[C@@H](Oc2ncc(OC)c3ccc(Cl)cc23)CN1C(=O)[C@@H](Nc1nc(-c2ccccc2C(F)(F)F)cs1)C(C)(C)C)C(=O)NS(=O)(=O)C1CC1 [Example 95] | – | 17 | – | –
16 | C=C[C@@H]1C[C@]1(NC(=O)[C@@H]1C[C@@H](Oc2ncc(OC)c3ccc(Cl)cc23)CN1C(=O)[C@@H](Nc1nc(-c2nc3ccccc3s2)cs1)C(C)(C)C)C(=O)NS(=O)(=O)C1CC1 [Example 96] | – | – | – | 1 to 20
